Measurements reported in article PMC8101618, “Comparable Initial Engagement of Intracellular Signaling Pathways by Parathyroid Hormone Receptor Ligands Teriparatide, Abaloparatide, and Long‐Acting PTH” (JBMR Plus, 2021).

Key:
human PTH1R = experiment: β-arrestin2-YFP clustering in GBR-24 cells; type: cell-based; conditions: TMR-labeled ligands 30nM, 15 min, room temperature; β-arrestin2-YFP HEK293 cells (GBR-24) transiently transfected with human PTH1R
Description: Recruitment of β‐arrestin was assessed in HEK293 cells stably transfected to express β‐arrestin2‐YFP^( ^36 ^) and glosensor (GBR‐24 cells)^( ^34 ^) and transiently transfected to express the hPTH1R or mDsRed‐hPTH1R in which the monomeric Discosoma sp. red fluorescent protein is inserted in the E2 region of the receptor's extracellular domain. Cells were treated with each PTH1R ligand and imaged by fluorescent microscopy as described above (see 2.4 Internalization). The quantification of colocalizations between β‐arrestin2YFP and TMR‐ligands were performed by ImageJ software (NIH, Bethesda, MD, USA; https://imagej.nih.gov/ij/) using Just Another Colocalization Plugin (JACoP) and indicated as cytofluorograms.
Recruitment of the intracellular scaffolding proteins β‐arrrestin1/2 is a well‐characterized step that occurs following activation and GRK‐dependent phosphorylation in multiple G‐Protein‐Coupled Receptors (GPCRs) signaling systems.^( ^39 ^) β‐arrestin recruitment is traditionally thought to lead to signal termination due to receptor internalization. […] For this, HEK293 cells stably expressing YFP‐tagged β‐arrestin2 (GBR‐24 cells) were transiently transfected with human PTH1R cDNA, then treated with TMR‐labeled PTH ligands at 30nM for 15 min at room temperature. Thereafter, cells were rinsed, fixed, and viewed by epifluorescent microscopy.

[1] = system: human PTH1R-pHluorin2-GFP; experiment: internalization using GFP^pHs fluorescence (GPG-10 cells); type: cell-based; conditions: continuous treatment 90 min, range of doses; ratio 485/405 nm excitation, emission 535 nm; pH 7.4; n = 6 independent experiments
Description: Receptor internalization was assessed in the HEK293 cell line stably transfected with human PTH1R‐pHluorin2‐GFP (GPG‐10 cells).^( ^33 , ^34 ^) Confluent monolayers of cells in black‐walled, 96‐well plates were incubated in HBSS with BSA (0.1% wt/vol) and HEPES buffer (pH 7.4, 10mM). Peptides were added and wells were analyzed by recording fluorescence readouts with excitation at 485 or 405 nm and emission at 535 nm. Data were analyzed as a ratio of fluorescence intensity following excitation at 485/405 nm over the course of 90 min, and the area under the curve (AUC) values for each time course were plotted as a function of ligand concentration.
A complementary approach was used to visualize ligand‐dependent colocalization of PTH1R and β‐arrestin2. For this, β‐arrestin2‐YFP–expressing cells were transiently transduced with a plasmid encoding a dsRed‐tagged version of human PTH1R. […] In that study, multiple ligand concentrations were used and the responses were assessed at the peak response time, which was generally ~5 min after ligand addition.^( ^42 ^) To explore differences in receptor internalization in more detail, we used constructs where the PTH receptor is fused to a pH‐sensitive GFP variant (GFP^pHs) which changes its fluorescent signal in acidic endosomes. […]

HDAC4 S246, HDAC5 S259 = experiment: HDAC4/5 phosphorylation immunoblotting in Ocy454 cells; type: cell-based, murine; conditions: 10nM, 1 hour (Supplementary Fig. S1)
Description: For immunoblotting, cells were prepared as described.^( ^37 ^) Whole cell lysates were prepared using TNT (Tris‐NaCl‐Tween buffer, 20mM Tris‐HCl pH 8, 200mM NaCl, 0.5% Triton X‐100 containing protease inhibitor [PI], 1mM NaF, 1mM dithiothreitol [DTT], 1mM vanadate). Adherent cells were washed with ice cold PBS, then scraped into TNT buffer on ice. Material was then transferred into Eppendorf tubes kept on ice, vortexed at top speed for 30 s, then centrifuged at 14,000g for 6 min at 4°C. For immunoblotting, lysates or immunoprecipitates were separated by SDS‐PAGE and proteins were transferred to nitrocellulose. […] The next day, membranes were washed, incubated with appropriate horseradish peroxidase (HRP)‐coupled secondary antibodies, and signals were detected with ECL Western Blotting Substrate (Pierce, Rockford, IL, USA), ECL Plus Western Blotting Substrate (Pierce), or SuperSignal West Femto Maximum Sensitivity Substrate (Thermo Scientific, Waltham, MA, USA). […] Quantification was performed using ImageJ.
In cells, SIKs are constitutively active kinases due to upstream LKB1 activation loop phosphorylation,^( ^45 ^) and therefore constitutively phosphorylate their substrates. […] We assessed the effects of different PTH ligands on class IIa HDAC and CRTC phosphorylation at well‐documented SIK phosphorylation sites: HDAC4 S246, HDAC5 S259, and CRTC2 S275. […]

PTH1R = conditions: cited from earlier work
From the text: Recruitment of the intracellular scaffolding proteins β‐arrrestin1/2 is a well‐characterized step that occurs following activation and GRK‐dependent phosphorylation in multiple G‐Protein‐Coupled Receptors (GPCRs) signaling systems.^( ^39 ^) β‐arrestin recruitment is traditionally thought to lead to signal termination due to receptor internalization.

SIK = conditions: cultured osteocytes and in vivo; cited from earlier work
From the text: Although it is well‐established that PTH‐mediated increases in bone formation require actions in osteocytes,^( ^19 , ^23 ^) the signaling events downstream of the PTH1R in osteocytes have remained elusive. We recently described a new signaling pathway that relays information from the PTH1R to the nucleus in osteocytes.^( ^24 ^) A crucial step in this cascade involves cyclic AMP (cAMP)‐mediated inhibition of salt inducible kinase 2 (SIK2). Importantly, PTH1R‐induced SIK2 phosphorylation/inactivation occurs rapidly (within 1 min of receptor engagement by hPTH (1‐34)) and then diminishes.^( ^24 ^ ...

Q: For “LNleHQLdWKWIQDARRRAWLHKLIAEIHTAEI.NH2 [PTH (7‐36), N‐truncated LA‐PTH analog used as a negative control]”, which β-arrestin2 clustering/recruitment (human PTH1R) is on record?
A: fails to stimulate β‐arrestin2 recruitment

Q: And the “PTH1R internalization (AUC of GFP^pHs fluorescence ratio)” value [1]?
A: internalization‐deficient

Q: What about the “SIK substrate phosphorylation and gene expression changes” value (HDAC4 S246, HDAC5 S259) of the same compound?
A: completely inactive

Q: And the “intracellular signaling or PTH1R internalization” value (PTH1R)?
A: does not induce intracellular signaling or PTH1R internalization

Q: With `COc1ccc(N2C(=O)N(c3c(C)cccc3Cl)Cc3cnc(Nc4ccc(C5CCN(C)CC5)cc4OC)nc32)nc1` [YKL‐05‐099] as the compound, how does the PTH-mimicking action (SIK) read?
A: mimic PTH action in cultured osteocytes and in vivo
